# Data reported in patent US6251903A, “Alkyl, azido, alkoxy, and fluoro-substituted and fused quinoxalinediones and the use thereof as glycine receptor antagonist” (priority 2000, dated 2001).
# pKi: −log10 of the molar value. Entries after “also recorded” stand apart in the source; their conditions may differ. Read-outs that look alike come from different tables or passages of the source.
# Columns and labels:
# [1] = molecular target: T1, glycine binding site of the NMDA receptor (Rattus norvegicus, UniProt P35439); assay: 1 μM glycine-stimulated [3H]-MK801 binding assay, brain membrane homogenates
# T1 construct: rat brain membrane homogenates that are enriched in NMDA receptors; tissue Pel-Freez, Rogers, Arkansas (frozen rat brains); host or cells: rat brain membrane homogenate
# Protocol: This assay takes advantage of the dependence of the binding of [^3 H]-MK801 to the PCP receptor inside the pore of the NMDA channel on the presence of both glutamate and glycine. In the absence of glycine, but in the presence of glutamate, [^3 H]-MK801 cannot bind effectively to the PCP receptor because the NMDA channel remains closed and access of [^3 H]-MK801 to the PCP receptor inside the closed channel pore is severely restted.
# The assay is conducted using rat brain membrane homogenates that are enriched in NMDA receptors. The membranes are prepared as follows. Frozen rat brains (obtained from Pel-Freez, Rogers, Arkansas) are homogenized in 15 volumes (w/v) of ice cold 0.32 M sucrose. The homogenate is spun at 1,000×g for ten minutes. The supernatant is collected and spun for 20 minutes at 44,000×g. The pellet is suspended in 15 volumes of water (relative to original brain weight). The homogenate is again spun at 44,000×g for twenty minutes. The pellet is resuspended in 5 volumes of water and the suspension is freeze-thawed 2 times. After the final thaw cycle, the suspension is brought to 15 volumes with water and spun at 44,000×g for twenty minutes. The pellet is resuspended in 5 volumes of ice-cold 10 mM HEPES, and is titrated to pH 7.4 with KOH containing 0.04% Triton X-100. Membranes are incubated with the Triton/HEPES buffer at 37° C. for 15 minutes. The volume is then brought to 15 with ice-cold 10 mM HEPES, pH 7.4, and spun/washed three times with spins of 44,000×g between washes. The final pellet is suspended in three volumes of 50 mM HEPES, pH 7.4, and the protein concentration is determined with a standard dye-binding protein assay (Bio-Rad, Richmond, Calif.). The suspension is stored at -80° C. until used. Only HPLC grade water is used for all buffers and suspensions/washings. The extensive washings are necessary to remove as much endogenous glycine from the membrane preparation as possible.
# Nonspecific binding is defined as the difference in binding that occurs in the absence or presence of-PCP (final concentration: 100 μM). To determine the effect of 1 μM glycine on the binding of [^3 H]-MK801, bound radioactivity in the presence of 10 μM glutamate alone (final concentration) is subtracted from the bound radioactivity in the presence of both 10 μM glutamate and 1 μM glycine (final concentration). A 500 nM concentration (final) of 5,7-dichlorokynurenic (DCK) acid is added to all assay tubes. This concentration of the glycine antagonist DCK "buffers" most of the residual endogenous glycine that is not removed by the extensive washing steps that are carried out during the membrane preparation procedure.
# The assays are incubated for 120 minutes at room temperature after which time the membrane-bound radioactivity is isolated from the free radioactivity by vacuum filtration through Whatman glass fiber filters that had been pretreated with 0.3% polyethyleneimine. Filtration is accomplished using a Brandel,48 well cell harvester. Filtered membranes are washed three times with 3 mL each of ice cold buffer. Filters are transferred to scintillation vials and 5 mL of scintillation cocktail is added. The vials are shaken overnight and the radioactivity is counted by liquid scintillation spectroscopy. The assays are done in triplicate and all experiments are conducted at least three times.
# neurons = conditions: literature, cited from earlier work
# glycine binding site = glycine binding site (Rattus norvegicus, UniProt P35439); assay: affinity for the glycine binding site / glycine/NMDA receptor (Ki; method not stated); conditions: for times less active than 6,7-dichloro-5-nitro-1,4-dihydroquinoxaline-2,3-dione at the glycine/NMDA receptor: from Ki
# Excerpt: The binding affinities of quinoxaline-2,3-diones at NMDA receptor glycine sites also were estimated by electrophysiological assays with either cloned rat NMDA receptors expressed in Xenopus oocytes, or non-NMDA receptors expressed in oocytes by whole rat brain poly(A)^+ RNA. […] For NMDA receptors Ki values were approximated by averaging values at three subtype combinations (NR1A/NR2A, NR1A/NR2B, and NR1A/NR2C).
# [2] = system: glycine binding site of the NMDA receptor; conditions: literature, cited from earlier work
# [3] = system: non-NMDA glutamate receptors; conditions: literature, cited from earlier work
# animals = conditions: literature; cited from earlier work
# [4] = cited from earlier work
# [5] = penetration of the blood/brain barrier, access to the central nervous system; assay type: in vivo; conditions: inferred from Ki and MES ED50
# mice = assay: anticonvulsant activity in maximum electroshock seizure (MES) experiments in mice; assay type: in vivo, male Swiss/Webster mice; conditions: for ED50 / ED100: Mus musculus; for ED100 / ED50 (MES) / IV peak of action: Table IV
# Protocol: The seizure stimulus parameters were: 50 mA, 60 Hz, rectangular pulse, width 0.8 msec, duration 200 msec. Tonic hind limb extension observed after application of the electrical stimulus was recorded as occurrence of seizure. The drug was applied i.v. as an aqueous Tris (Tromethamine) solution.
# [6] = Table II, footnote b, from binding assays, read-out: Ki
# [7] = listed as 6,7-dinitroquinoxaline-2,3-dione
# [8] = read-out: Ki, affinity for the glycine/NMDA receptor
# [9] = iv, Table III, i.v. injection, read-out: ED50 (MES)
# [10] = route not stated, read-out: ED50 as an anticonvulsant in the MES experiment in mice
compound,measurement,setting,value
"CCc1cc2[nH]c(=O)c(=O)[nH]c2cc1Cl [H Cl Et H, 6-Chloro-7-ethyl-1,4-dihydroquinoxaline-2,3-dione]",pKi,[1],6.14
O=C(O)C1CC2CC(CP(=O)(O)O)CCC2CN1 (stereo not drawn) [LY274614],neuroprotective efficacy,neurons,have neuroprotective efficacy
"CCc1cc2[nH]c(=O)c(=O)[nH]c2cc1CC [H Et Et H, 6,7-Diethyl-1,4-dihydroquinoxaline-2,3-dione]",pKi,[1],6.10
"[N-]=[N+]=Nc1ccc2[nH]c(=O)c(=O)[nH]c2c1 [H N3 H H, 6-azidol-1,4-dihydroquinoxaline-2,3-dione]",binding to the glycine binding site,"glycine binding site; Table I, compared with other 6-substituted derivatives",quite favorably binds
same,pKi,"glycine binding site; Table I, read-out: Ki",6.68
same,pKi,[1]; [6],6.04
"CCCCOc1c(F)cc2nc(O)c(O)nc2c1[N+](=O)[O-] [NO2 OBu-n F H, 7-Fluoro-6-(n-butoxy)-5-nitro-1,4-dihydroquinoxaline-2,3-dione]",pKi,[1],5.19
"O=c1[nH]c2cc([N+](=O)[O-])c([N+](=O)[O-])cc2[nH]c1=O [6,7-dinitro-1,4-dihydroquinoxaline-2,3-dione]",glycine site antagonism or affinity (words),[2],can antagonize the responses to L-glutamate by interacting with the glycine recognition sites; also recorded: inhibit [^3 H] glycine binding to the strychnine-insensitive glycine binding sites
same,glycine site antagonism or affinity (words),[2]; [7],glycine antagonists
same,neuroprotective efficacy,neurons,neuroprotective activity
same,neuroprotective efficacy,neurons; [7],neuroprotective in vitro
same,antagonism at kainate / AMPA / non-NMDA receptors,[3],more potent antagonists of kainate than glycine; also recorded: potent non-NMDA glutamate receptor antagonists
same,antagonism at kainate / AMPA / non-NMDA receptors,[3]; [7],AMPA
same,in vivo activity,animals,antagonize responses mediated by NMDA-associated glycine recognition sites in vivo
same,penetration of the blood/brain barrier (words),"[4]; literature, listed as DNQX",poor access to the central nervous system
"Cc1c(Br)cc2nc(O)c(O)nc2c1[N+](=O)[O-] [NO2 Me Br H, 7-Bromo-6-methyl-5-nitro-1,4-dihydroquinoxaline-2,3-dione]",pKi,[1],7.40
NC1CCN(O)C1=O (racemic) [HA-966],glycine site antagonism or affinity (words),[2],partial agonist with only micromolar affinity for the glycine binding site
same,penetration of the blood/brain barrier (words),[4]; literature,sufficiently penetrates the blood/brain barrier
"COc1c(Cl)cc2[nH]c(=O)c(=O)[nH]c2c1[N+](=O)[O-] [NO2 OMe Cl H, 7-Chloro-6-methoxy-5-nitro-1,4-dihydroquinoxaline-2,3-dione]",pKi,[1],6.35
"CCc1c(Cl)cc2nc(O)c(O)nc2c1[N+](=O)[O-] [NO2 Et Cl H, 7-Chloro-6-ethyl-5-nitro-1,4-dihydroquinoxaline-2,3-dione]",pKi,[1],6.70
O=C(O)c1cc2ccccc2[nH]1 [indole-2-carboxylic acid],glycine site antagonism or affinity (words),[2],relatively high receptor binding affinity in vitro
same,penetration of the blood/brain barrier (words),[4]; literature,cannot penetrate the blood/brain barrier
"O=[N+]([O-])c1c(OCCCc2ccccc2)c(F)cc2nc(O)c(O)nc12 [NO2 O(CH2)3 Ph F H, 7-Fluoro-6(3-phenylpropoxy)-5-nitro-1,4-dihydroquinoxaline-2,3-dione]",pKi,[1],5.17
O=C(O)[C@@H]1C[C@H](CP(=O)(O)O)CCN1 [CGS 19755],neuroprotective efficacy,neurons,have neuroprotective efficacy
"c1ccc(C2(N3CCCCC3)CCCCC2)cc1 [PCP, phencyclidine]",neuroprotective efficacy,neurons,have neuroprotective efficacy both in vitro and in vivo
"Cc1c([N+](=O)[O-])c([N+](=O)[O-])c(Cl)c2[nH]c(=O)c(=O)[nH]c12 [Cl NO2 NO2 Me, 5-Chloro-6,7-dinitro-8-methyl-2,3-quinoxalinedione]",pKi,[1],5.42
"O=c1[nH]c2cc([N+](=O)[O-])cc([N+](=O)[O-])c2[nH]c1=O [5,7-dinitro-1,4-dihydroquinoxaline-2,3-dione]",glycine site antagonism or affinity (words),[2],potent-antagonist of the strychnine insensitive glycine receptor
same,in vivo activity,animals,has anticonvulsant properties
same,penetration of the blood/brain barrier (words),[4]; literature,poor access to the central nervous system
"NS(=O)(=O)c1cccc2c1c([N+](=O)[O-])cc1nc(O)c(O)nc12 [2,3-dihydroxy-6-nitro-7-sulfamoyl-benzo (F) quinoxaline]",neuroprotective efficacy,neurons,neuroprotective in cerebral ischemia models
same,antagonism at kainate / AMPA / non-NMDA receptors,[3],AMPA selective
"CCc1cc2nc(O)c(O)nc2c([N+](=O)[O-])c1Cl [NO2 Cl Et H, 6-Chloro-7-ethyl-5-nitro-1,4-dihydroquinoxaline-2,3-dione]",pKi,[1],7.40
CNC1(c2ccccc2Cl)CCCCC1=O (stereo not drawn) [ketamine],neuroprotective efficacy,neurons,have neuroprotective efficacy both in vitro and in vivo
COc1ccc2c(c1)[C@]13CCCC[C@@H]1[C@H](C2)N(C)CC3 [dextromethorphan],neuroprotective efficacy,neurons,have neuroprotective efficacy both in vitro and in vivo
"Cc1c(Cl)cc2nc(O)c(O)nc2c1N [NH2 Me Cl H, 5-Amino-7-chloro-1,4-dihydro-6-methylquinoxaline-2,3-dione]",pKi,[1],6.30
"Cc1ccc2[nH]c(=O)c(=O)[nH]c2c1 [H Me H H, 6-Methyl-1,4-dihydro-2,3-quinoxalinedione]",pKi,[1]; [6],5.05
"O=c1[nH]c2cc(F)c(F)c([N+](=O)[O-])c2[nH]c1=O [NO2 F F H, 6,7-Difluoro-5-nitro-1,4-dihydro-2,3-quinoxalinedione]","times less active than 6,7-dichloro-5-nitro-1,4-dihydroquinoxaline-2,3-dione at the glycine/NMDA receptor",glycine binding site,more than 20 times
same,pKi,glycine binding site; [8],7.06
same,"times better in crossing the blood brain barrier than 6,7-dichloro-5-nitro-1,4-dihydroquinoxaline-2,3-dione",[5],about 100 times
same,ED50,mice; [9],0.7 to 0.8 mg/kg
same,ED100,mice; i.v.,2.5 mg/kg
same,ED50,mice; [10],0.7 to 0.8 mg/kg
same,ED50 (MES),mice; i.v.,0.7 to 0.8 mg/kg
same,IV peak of action,mice; i.v.,1 min
same,% protection after 60 min.,"mice; i.v., 2.5 mg/kg",0%
same,protection against MES after 60 min.,"mice; i.v., after 60 min",no more protection was observed
"O=C(O)c1cc(O)c2c(Cl)cc(Cl)cc2n1 [5,7-dichlorokynurenic acid]",glycine site antagonism or affinity (words),[2],relatively high receptor binding affinity in vitro
same,penetration of the blood/brain barrier (words),[4]; in vivo,cannot penetrate the blood/brain barrier
"O=c1[nH]c2c(F)c(Cl)c(F)c([N+](=O)[O-])c2[nH]c1=O [NO2 F Cl F, 7-Chloro-6,8-difluoro-5-nitro-1,4-dihydroquinoxaline-2,3-dione]","times less active than 6,7-dichloro-5-nitro-1,4-dihydroquinoxaline-2,3-dione at the glycine/NMDA receptor",glycine binding site,about 50 times
same,pKi,glycine binding site; [8],6.77
same,"times better in crossing the blood brain barrier than 6,7-dichloro-5-nitro-1,4-dihydroquinoxaline-2,3-dione",[5],about 100 times
same,ED50,mice; [9],2 to 3 mg/kg
same,ED100,mice; i.v.,5 mg/kg
same,ED50,mice; [10],2 to 3 mg/kg
same,ED50 (MES),mice; i.v.,2 to 3 mg/kg
same,IV peak of action,mice; i.v.,2 to 5 min
same,% protection after 60 min.,"mice; i.v., 5 mg/kg",50%
